This is an account of results in article PMC7582770, “Synthesis of “All-Cis” Trihydroxypiperidines from a Carbohydrate-Derived Ketone: Hints for the Design of New β-Gal and GCase Inhibitors” (Molecules, 2020).

Each structure is given as a SMILES string. Changes are numbered by the printed parent chain. Where two headings read alike, the source gives them in different places. Marks after values point to notes of the source that are not given here.

The subject of series [1] is mutant β-Gal in GM1-gangliosidosis patient fibroblasts. Particulars: cited from earlier work.
The subject of the next series is human lysosomal β-Gal. Particulars: cited from earlier work.
Series [2] concerns the target T1, human lysosomal β-galactosidase (β-Gal) (Homo sapiens, UniProt P16278).
T1 construct: in leukocytes isolated from healthy donors (controls); endogenous in cells; host or cells: human leukocytes from healthy donors, disrupted by sonication (crude homogenate)
T1 sequence (P16278 29-677): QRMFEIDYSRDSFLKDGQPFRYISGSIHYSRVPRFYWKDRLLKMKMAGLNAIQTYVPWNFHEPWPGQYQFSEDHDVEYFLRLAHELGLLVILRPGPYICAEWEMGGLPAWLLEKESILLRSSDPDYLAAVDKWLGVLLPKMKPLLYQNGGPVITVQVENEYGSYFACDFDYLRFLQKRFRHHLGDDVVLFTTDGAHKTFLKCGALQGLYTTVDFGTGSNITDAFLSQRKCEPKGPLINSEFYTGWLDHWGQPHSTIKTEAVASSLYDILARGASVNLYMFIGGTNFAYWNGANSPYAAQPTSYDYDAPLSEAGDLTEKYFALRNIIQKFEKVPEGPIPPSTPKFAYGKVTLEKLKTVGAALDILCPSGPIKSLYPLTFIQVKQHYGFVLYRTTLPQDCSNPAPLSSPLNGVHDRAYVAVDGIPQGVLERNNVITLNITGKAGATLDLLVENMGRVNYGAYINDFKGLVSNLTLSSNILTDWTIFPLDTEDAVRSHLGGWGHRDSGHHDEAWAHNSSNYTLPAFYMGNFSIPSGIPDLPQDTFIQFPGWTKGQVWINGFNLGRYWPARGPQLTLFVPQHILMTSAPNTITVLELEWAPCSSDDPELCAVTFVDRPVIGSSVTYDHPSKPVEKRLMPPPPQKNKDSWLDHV
In words: β-Gal inhibition in human leukocyte homogenates. The format is biochemical. The following applies: compounds 1 mM; human leukocytes extracts. As for the experimental part: (§1) The new compounds were screened at 1 mM concentration towards β-galactosidase (β-Gal) and β-glucosidase (GCase) in leukocytes isolated from healthy donors (controls). Isolated leukocytes were disrupted by sonication, and a Micro BCA Protein Assay Kit (Sigma–Aldrich, St. Louis, MO, USA) was used to determine the total protein amount for the enzymatic assay, according to the manufacturer’s instructions.
β-Gal activity was measured in a flat-bottomed 96-well plate. Azasugar solution (3 μL), 4.29 μg/μL leukocytes homogenate 1:10 (7 μL), and substrate 4-methylumbelliferyl β-D-galactopyranoside (1.47 mM, 20 μL, Sigma–Aldrich) in acetate buffer (0.1 M, pH 4.3) containing NaCl (0.1 M) and sodium azide (0.02%) were incubated at 37 °C for 1 h. The reaction was stopped by addition of sodium carbonate (200 μL; 0.5 M, pH 10.7) containing Triton X-100 (0.0025%), and the fluorescence 4-methylumbelliferone released by β-galactosidase activity was measured in SpectraMax M2 Microplate Reader (λex = 365 nm and λem = 435 nm; Molecular Devices LLC, San Jose, CA, US). Inhibition is given with respect to the control (without azasugar). Data are mean SD (n = 3).

In series [3] the target is T2, human lysosomal β-glucosidase (GCase) (Homo sapiens, UniProt P04062).
T2 construct: in leukocytes isolated from healthy donors (controls); endogenous in cells; host or cells: human leukocytes from healthy donors, disrupted by sonication (crude homogenate)
T2 sequence (P04062 40-536): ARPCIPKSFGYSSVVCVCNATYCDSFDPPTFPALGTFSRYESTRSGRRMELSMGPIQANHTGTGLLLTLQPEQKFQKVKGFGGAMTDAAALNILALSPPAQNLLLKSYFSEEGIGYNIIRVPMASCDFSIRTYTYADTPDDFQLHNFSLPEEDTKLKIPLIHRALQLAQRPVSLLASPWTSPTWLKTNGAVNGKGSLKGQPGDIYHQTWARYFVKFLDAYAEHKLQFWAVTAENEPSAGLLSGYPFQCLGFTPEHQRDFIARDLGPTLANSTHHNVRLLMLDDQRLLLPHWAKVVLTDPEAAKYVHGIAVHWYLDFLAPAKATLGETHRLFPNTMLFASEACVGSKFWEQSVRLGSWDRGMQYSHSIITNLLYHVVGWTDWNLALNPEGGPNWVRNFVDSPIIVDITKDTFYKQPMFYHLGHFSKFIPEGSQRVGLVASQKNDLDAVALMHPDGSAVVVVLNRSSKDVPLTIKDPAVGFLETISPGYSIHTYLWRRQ
In words: GCase inhibition in human leukocyte homogenates. The following applies: compounds 1 mM; human leukocytes extracts. Type of series: biochemical. The protocol: as §1
GCase activity was measured in a flat-bottomed 96-well plate. Compound solution (3 µL), 4.29 µg/µL leukocytes homogenate (7 µL), and substrate 4-methylumbelliferyl-β-D-glucoside (3.33 mM, 20 µL, Sigma–Aldrich Chemie Gmbh, Munich, Germany)) in citrate/phosphate buffer (0.1:0.2, M/M, pH 5.8) containing sodium taurocholate (0.3%) and Triton X-100 (0.15%) at 37 °C were incubated for 1 h. The reaction was stopped by addition of sodium carbonate (200 µL; 0.5 M, pH 10.7) containing Triton X-100 (0.0025%), and the fluorescence of 4-methylumbelliferone released by β-glucosidase activity was measured in SpectraMax M2 Microplate Reader (λex = 365 nm and λem = 435 nm; Molecular Devices LLC, San Jose, CA, US). Percentage GCase inhibition is given with respect to the control (without compound). Data are mean SD (n = 3). For compounds showing GCase inhibitory activity higher than 80% at 1 mM concentration, the IC50 values were determined by measuring the initial hydrolysis rate with 4-methylumbelliferyl-β-D-glucoside (3.33 mM). Data obtained were fitted by using the appropriate equation (for more details, see the Supplementary Materials).
IC50 for compounds 9, 10, 12 and 21 towards human lysosomal β-glucosidase The IC50 values of inhibitors against β-glucosidase were determined by measuring the initial hydrolysis rate with 4-methylumbelliferyl-β-D-glucoside (3.33 mM). Data obtained were fitted to the following equation using the Origin Microcal program. where Vi/Vo, represent the ratio between the activity measured in the presence of the inhibitor (Vi) and the activity of the control without the inhibitor (V0), “x” the inhibitor concentration, Max and Min, the maximal and minimal enzymatic activity observed, respectively.
Figure S48: IC of compound 9 towards GCase
Figure S49: IC50 of compound 10 towards GCase
(also on this page, place not known: Min x MinMax Vo Vi slope + […] […] […] […] […] […]+ −= 1 be tween (V i) (V 0), IC50) […]

The target of series [4] is T2, human lysosomal β-glucosidase (GCase). Particulars: human leukocytes extracts, cited from earlier work; for GCase Inhibition (%): compounds 1 mM.
In series [5] the target is T3, GCase in fibroblasts with the N370S/RecNcil mutation (Homo sapiens, UniProt P04062, N409S).
T3 construct: Fibroblasts with the N370S/RecNcil mutation from patients with Gaucher disease; host or cells: human Gaucher patient fibroblasts, N370S/RecNciI
T3 sequence (P04062 40-536 N409S): T2 sequence (P04062 40-536) with N370S
Further details: method as in PMID 26376302. The following applies: at 100 µM; cited from earlier work.

Series [6] has as its target T1, human lysosomal β-galactosidase (β-Gal). Further details: method as in PMID 32200326. The following applies: compounds 1 mM; human leukocytes extracts; cited from earlier work.

For `CCCCCCCCCN1C[C@H](O)[C@@H](O)[C@@H](O)[C@H]1CO` [compound 2, N-nonyl-DGJ], the “rescue of intracellular activity of mutant β-Gal in GM1-gangliosidosis patient fibroblasts” value in series [1] is reported as “able to rescue the intracellular activity of mutant β-Gal”.

One may read the IC50 as the concentration needed to halve the response being measured. Take `OC[C@H]1CNC[C@@H](O)[C@H]1O` [compound 3, 4-epi-isofagomine]: the IC50 with human lysosomal β-Gal is 1000 nM.

Take `CCCCC[C@H]1NC[C@@H](O)[C@@H](O)[C@H]1CO` [compound 4]: the IC50 with human lysosomal β-Gal was 10 nM. Further, the “rescue of mutant β-Gal activity in fibroblasts from GM1-gangliosidosis patients” value in series [1] is listed as “able to rescue mutant β-Gal activity”.

For the compound `CCCCCCCCC[C@H]1NC[C@@H](O)[C@@H](O)[C@H]1CO` [compound 5], the IC50 with human lysosomal β-Gal is 0.4 nM. In addition, the “rescue of mutant β-Gal activity in fibroblasts from GM1-gangliosidosis patients” value in series [1] is reported as “able to rescue mutant β-Gal activity”.

In the case of `O[C@@H]1[C@H](O)[C@H](O)CN[C@H]1C[C@H](O)c1ccccc1` [compound 6], the “increase of β-Gal activity in GM1 gangliosidosis patient fibroblasts” value in series [1] was 2–6 fold.

Regarding `CCCCCCCC[C@@H](O)C[C@@H]1NC[C@@H](O)[C@@H](O)[C@H]1O` [compound 7], the “increase of β-Gal activity in GM1 gangliosidosis patient fibroblasts” value in series [1] was 2–6 fold.

By inhibition is commonly meant the change of the read-out against control, counted positive when it falls. Lower therefore signals a weak effect. Take `O[C@@H]1CNC[C@@](O)(CCc2ccccc2)[C@@H]1O` [compound 11, (3S, 4R, 5R)-3,4,5-Trihydroxy-3-(2-Phenylethyl)-Piperidine]: the figures for the inhibition at 1000 µM in series [2] and in series [3] were 0% and 36%, respectively.

Take `CC[C@]1(O)CNC[C@@H](O)[C@H]1O` [compound 13, (3S, 4R, 5R)-3-Ethyl-3,4,5-Trihydroxypiperidine]: the inhibition at 1000 µM in series [2] turned out to be 3%; in series [3] it was 30%.

The term melting point denotes the temperature of the solid-liquid transition. The compound `O[C@@H]1CNC[C@@](O)(CCc2ccsc2)[C@@H]1O` [compound 14, (3S, 4R, 5R)-3,4,5-Trihydroxy-3-((2-(3-Thienyl) Ethyl))-Piperidine] showed a melting point of 73 to 75 °C. The same compound gave an inhibition at 1000 µM in series [2] of 16%. The compound further displayed an inhibition at 1000 µM in series [3] of 9%.

Regarding `CN(C)c1ccc(CC[C@]2(O)CNC[C@@H](O)[C@H]2O)cc1` [compound 15], the inhibition at 1000 µM in series [2] and in series [3] was 6% in each case.

With `O[C@@H]1CNC[C@@](O)(C#Cc2ccccc2)[C@@H]1O` [compound 32, (3S, 4R, 5R)-3,4,5-Trihydroxy-3-(Phenylethynyl)-Piperidine], the “β-Gal Inhibition (%)” value in series [2] amounted to 16%. Also, the inhibition at 1000 µM in series [3] worked out at 25%.

`CCCCCCC#C[C@]1(O)CNC[C@@H](O)[C@H]1O` [compound 33, (3S, 4R, 5R)-3,4,5-Trihydroxy-3-(oct-1-yn-1-yl)-Piperidine]: the inhibition at 1000 µM stood at 4% in series [2] and 65% in series [3].

With `CCCCCCCCN[C@H]1CNC[C@@H](O)[C@H]1O` [compound 36], testing at 1000 µM in series [2] gave an inhibition of 15%. In addition, in series [4], the “GCase Inhibition (%)” value is recorded as 93 ^c % and the IC50 is 40000 ± 3000 nM. The “rescue of GCase activity” value in series [5] is reported as 1.5 fold.

`CCCCCCCC[C@H]1NC[C@@H](O)[C@@H](O)[C@@H]1O` [compound 37]: the “β-Gal Inhibition (%)” value in series [6] is listed as 14 ^d %. Also, in series [4], the “GCase Inhibition (%)” value is given as 100 ^d % and the IC50 was 29000 ± 2000 nM.

For the compound `CCCCCCCCCCCC[C@H]1NC[C@@H](O)[C@@H](O)[C@@H]1O` [compound 38], in series [6], the “β-Gal Inhibition (%)” value is recorded as 5 ^d %. In series [4], the “GCase Inhibition (%)” value is reported as 100 ^d % and the IC50 is 1500 ± 100 nM.

As for `CCCCCCCC[C@@H]1NC[C@@H](O)[C@@H](O)[C@@H]1O` [compound 39], the “β-Gal Inhibition (%)” value in series [6] was 31 ^d %. In series [4], the “GCase Inhibition (%)” value was 80 ^d % and the IC50 was 94000 ± 5000 nM.
